System: mPFC slices of AAV-GFP-Tau[R406W] infected mice
Assay: mPFC LTP in mice overexpressing GFP-Tau[R406W]
Type: cell-based, mouse
Settings: bath application of 0.3 μM DP12; 50-60 min after induction
Experimental: Prefrontal slices (400 μm) were transferred to a submerged-type recording MC membrane chamber (volume 2 ml; Scientific Systems Design Inc., Mississauga, Ontario, Canada) perfused with oxygenated recording ACSF at a flow rate of 4 ml/min and maintained at room temperature (22-25° C.), unless stated otherwise in the “Results”-section given below. Field EPSPs were evoked and recorded using thin-walled glass electrodes (borosilicate glass, wall thickness 0.188, length 100, and outer diameter 1.5 mm, Hilgenberg, Malsfeld, Germany) filled with recording aCSF in 400 μm-thick mPFC slices. […]
Before LTP induction, basal synaptic transmission was recorded in each slice and the relationship between stimulus intensity and fEPSP slope was measured. […] The supramaximal slope was determined by gradually increasing the stimulation intensity until a population spike in the fEPSP became first visible. […]
LTP was induced by application of five trains of theta-burst stimulation (TBS) with an inter-theta-train interval of 20 s (Brennaman et al., 2011). […] For calculation of the LTP level, the mean fEPSP slope was measured between 50-60 min after TBS delivery, and it was then normalized to mean baseline fEPSP slope during 0-10 min before TBS. Stimulus artifacts in representative fEPSP examples in figures were blanked to facilitate the perception of fEPSPs recorded in the mPFC. […]

## (α(2→8)Neu5Ac)12 [DP12]
  rescue of impaired mPFC LTP: fully rescue LTP
